Source: patent EP1209147A1, “CARBOXYLIC ACID DERIVATIVES AND ADHESION MOLECULE INHIBITORS CONTAINING THE SAME AS THE ACTIVE INGREDIENT” (TORAY INDUSTRIES, INC., priority 1999, dated 2001)

Experiments:
Mouse Asthma Model = test: Mouse asthma model (OVA/Alum sensitization, OVA inhalation, airway anaphylaxis and BALF eosinophils); format: in vivo, BLAB/c mouse; conditions: at a dose of not more than 150 mg/kg, topically or systemically
Experimental: A mixed solution containing aluminum hydroxide gel (Alum) on which ovalbumin (hereinafter "OVA") was adsorbed (20 ∝g OVA/2mg Alum/200 ∝l physiological saline) was intraperitoneally administered to each BLAB/c mouse (female, 7 weeks old, JAPAN CHARLES RIVER) at a dose of 200 ∝l ([…]) per time on DAY-1 and DAY-14 to sensitize the mouse. Then each mice was made to aspire 2% OVA dissolved in physiological saline on DAY-28, 29 and 30 to induce inflammation. Compound Nos. 143 and 236 used as the test compounds were dissolved in physiological saline and each solution was topically or systemically administered at 30 minutes before induction by OVA, and twice a day after induction.
On DAY-31, development of airway anaphylaxis was measured using a non-restrictive chamber (BUXCO). Then the bronchus of each mouse was incised and the bronchus and alveoli were washed (BAL) with 0.7 ml of physiological saline. After the washing, the washing fluid (BALF) of the bronchus and alveoli was recovered and centrifuged. The leukocytes contained in the BALF were subjected to site spin to prepare a smear specimen. After staining the specimen by May-Giemsa staining method, the leukocytes were grouped and counted under microscope to determine the number of eosinophils. The experiment was carried out using 6 to 8 mice in each group. The results are shown in terms of mean ± standard error.

[1] = tested on: Jurkat cells (ATCC TIB-152); test: Influence on cell survival rate (alamarBlue); format: cell-based; conditions: cultured 24 hours with compound
Experimental: Jurkat cells (ATCC TIB-152) passaged on 10% fetal calf serum-containing RPMI medium (10F-RPMI, GIBCO) were suspended in the same medium to a cell population of 5 x 10^5 cells/ml, and the suspension was placed in each well of a 96-well plate (COSTAR) in an amount of 100 µl/well, followed by culturing the cells at 37°C under 5% CO2 for 24 hours. Then alamarBlue®(BioSource) was added in an amount of 10 µl/well and the cells were cultured for another 4 hours. Thereafter, the absorbance at 570 nm and 600 nm was measured with a microplate reader (BioRad model 3550). The test compound dissolved in 10F-RPMI was mixed with the Jurkat cells and the cells were cultured for 24 hours to examine its influence.

superoxide = test: Radical scavenger action (superoxide from xanthine and xanthine oxidase); format: biochemical; conditions: luminescence at 380 nm, 10 to 60 seconds after xanthine oxidase addition
Experimental: The radical scavenger action of the compounds was measured using the amount of the superoxide as an index, which is produced when xanthine and xanthine oxidase are reacted. First, 1 mM of xanthine (SIGMA) dissolved in Hanks buffer solution (GIBCO), 2 mM dietylenetriamine-N,N,N',N"-pentaacetic acid (DOJIN) and 40 µM 2-methyl-6-phenyl-3,7-dihydroimidazo[1,2-a]pyrazin-3-one (TOKYO KASEI KOGYO) dissolved in distilled water when use were mixed. Further, 0.3 U/ml xanthine oxidase (BMY) dissolved in Hanks buffer when use was added. Luminescence intensity at 380 nm from 10 seconds to 60 seconds after the addition was measured by Lumat (Berthold, LB9501), and the measured amount was defined as the amount of produced superoxide. The test compound was added to the xanthine-containing solution before addition of the xanthine oxidase, and the resulting mixture was preincubated at 25°C for 5 minutes to examine its influence.

| Compound | accumulation of eosinophils to the lung (Mouse Asthma Model; BALF on DAY-31) | progress of airway anaphylaxis (Mouse Asthma Model; DAY-31) | influences on the survival rate of the cells relative to 3-(4-((2,6-dichlorophenyl)carbonylamino)phenyl)-2-((6-bromo-2-methylphenyl)carbonylamino)propanoic acid [1] | radical scavenger activities relative to 3-(4-((2,6-dichlorophenyl)carbonylamino)phenyl)-2-((6-bromo-2-methylphenyl)carbonylamino)propanoic acid (superoxide) [times] |
| --- | --- | --- | --- | --- |
| O=C(Nc1ccn(C[C@H](NC(=O)c2c(Cl)cccc2Cl)C(=O)O)c(=O)n1)c1c(Cl)cccc1Cl [Example 236, (2S)-2-((2,6-dichlorophenyl)carbonylamino)-3-(4-((2,6-dichlorophenyl)carbonylamino)-2-oxohydropyrimidinyl)propionic acid] | inhibited | inhibited | not more than 1/4 | 2 to 5 |
| Cc1cccc(Br)c1C(=O)N[C@@H](Cn1ccc(NC(=O)c2c(Cl)cccc2Cl)nc1=O)C(=O)O [Example 240, (2S)-3-(4-((2,6-dichlorophenyl)carbonylamino)-2-oxohydropyrimidinyl)-2-((2-bromo-6-methylphenyl)carbonylamino)propionic acid] | – | – | not more than 1/4 | 2 to 5 |
